Data as given in patent US11366114B2, “Genetically encoded fluorescent sensors for detecting ligand bias and intracellular signaling through cAMP pathways” (MONTANA MOLECULAR LLC, priority 2013, dated 2022).

Columns and labels:
cAMP = test: Fluorescence response of cAMP sensors to isoproterenol in HEK 293 cells co-expressing the beta adrenergic receptor; assay type: cell-based, human; conditions: for Relative Change in Fluorescence: in response to isoproternol; for dF/F: relative fluorescence response to isoproternol
Description: To test the functionality of these 28 prototype sensors, each construct was co-expressed with the beta adrenergic receptor, which couples to the Gs signaling pathway when activated by isoproteronol, in HEK 293 cells, and the fluorescence measured as described below. Briefly, 96-well glass-bottom plates were coated with Poly-D-Lysine (Fisher Scientific, Pittsburgh, Pa.) and HEK 293 were seeded and cultured in EMEM (ATCC, Manassas, Va.) supplemented with 10% fetal bovine serum and Penicillin-Streptomycin at 37 […] and 30 ng of beta adrenergic receptor per well, using Lipofectamine 2000 Transfection Reagent (Life Technologies, Grand Island, N.Y.) according to the manufacturer's protocol, and incubated for 24-48 hours at 37° C. in 5% CO2.
Prior to screening transfected cells for fluorescence, he EMEM culture medium was removed and 1×DPBS added to each well. A Zeiss Axiovert S100TV inverted microscope equipped with computer controlled excitation/emission filter wheels, shutters, and a Qimaging Retiga Exi CCD camera (Surrey, BC Canada) was used to image cells at 25e A) supplemented with 10% fetal bovine serum and Penicillin-Streptomycin at 37hn filters were used to resolve the green fluorescence from the cAMP sensors. Cells were analyzed for increases or decreases in fluorescence intensity upon addition of isoproternol, DMSO, forskolin and IBMX. To analyze the image stacks, background fluorescence was defined as a region of the image that contained no cells. The average value of this region was subtracted frame by frame from the measurements of the mean pixel values of the fluorescent cells. Fluorescence intensity data was plotted and analyzed with IGOR (Wavemetrics, Oswego, Oreg.).
For transient expression and screening in an automated fluorescence plate reader, HEK 293T cells were cultured in Corning Co-Star Polystyrene 96-well plates coated with Poly-D-Lysine. HEK293T cells were plated at 35,000 cells/well in 100 μl growth medium per well without antibiotics so that the cells would be 90-95% confluent at the time of transfection (approximately 24 hours later). For each transfection (i.e. one well in a 96-well plate), 160 ng of plasmid DNA (120 ng sensor+40 ng receptor) was diluted in […] and then the mixture was replaced with fresh medium. Prior to scanning a plate on the Biotek Synergy Mx, EMEM culture medium was replaced with 250 μl of 1×DPBS per well. Plates were read at 25° C., using monochromators set to 488/20 nm excitation and 530/20 nm emission to resolve the green fluorescence from the cAMP sensor.

[1] = molecular target: T1, G-protein coupled calcitonin receptor (Homo sapiens, UniProt P30988); test: Multiplexing of cAMP sensor with DAG sensor, calcitonin response curves; assay type: cell-based
T1 sequence (P30988 25-474): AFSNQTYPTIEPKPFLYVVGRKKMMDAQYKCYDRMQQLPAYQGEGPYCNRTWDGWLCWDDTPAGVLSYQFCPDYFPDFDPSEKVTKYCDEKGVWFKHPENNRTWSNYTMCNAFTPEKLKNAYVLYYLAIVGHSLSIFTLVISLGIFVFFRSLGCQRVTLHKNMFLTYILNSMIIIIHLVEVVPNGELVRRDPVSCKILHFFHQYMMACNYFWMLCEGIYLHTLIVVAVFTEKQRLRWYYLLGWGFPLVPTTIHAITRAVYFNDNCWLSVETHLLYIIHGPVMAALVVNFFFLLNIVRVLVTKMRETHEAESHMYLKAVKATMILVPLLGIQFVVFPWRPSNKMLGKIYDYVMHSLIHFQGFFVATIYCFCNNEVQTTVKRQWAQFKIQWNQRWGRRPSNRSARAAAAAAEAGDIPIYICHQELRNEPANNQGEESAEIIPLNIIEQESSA
Text: FIG. 6 Multiplexing of a cAMP biosensor based on a single fluorescent protein with a second biosensor of a different color. The G-protein coupled calcitonin receptor was stimulated with different amounts of calcitonin (shown on the X axis) to produce response curves for a red cAMP and a green DAG sensor. The Y axis on the right indicates cAMP response. The Y axis on the left indicates DAG response.
The ability of cAMP sensor proteins of the present invention to be multiplexed with other fluorescence based sensors was tested. Briefly, cells were co-transfected with expression vector expressing a cAMP sensor protein of the present invention comprising a green fluorescent protein, and a DAG biosensor comprising a red fluorescent protein. The cells were cultured, treated with isoptroterenol and the resulting fluorescence measured as described in Example 1A. The results of this study are show in FIG. 6.

[2] = HEK 293 cells, beta adrenergic receptor co-expressed

Row | Substance | Relative Change in Fluorescence (cAMP) | dF/F (cAMP; [2]) | dF/F (cAMP; only cell of the column printed with %) | G-protein pathways stimulated (cAMP sensor / DAG sensor) ([1]; higher concentrations) | G-protein pathways stimulated (cAMP sensor / DAG sensor) ([1]; low concentrations)
1 | EPAC2gfpRAP1B: cpEGFP tethered between Epac2 and Rap1B; SEQID 27 in Table 1, SEQ ID NO: 28 in Table 3 | 26% | – | – | – | –
2 | EcpG9: prototype cAMP sensor, cpEGFP in Epac2 at L457; SEQID 30 in Table 1, SEQ ID NO: 31 in Table 3 | 13% | 13 | – | – | –
3 | EcpG10: prototype cAMP sensor, cpEGFP in Epac2 at R458; SEQID 25 in Table 1, SEQ ID NO: 26 in Table 3 | −30% | −30 | – | – | –
4 | EcpG12: prototype cAMP sensor, cpEGFP in Epac2 at V460; SEQID 11 in Table 1, SEQ ID NO: 12 in Table 3 | −36% | −36 | – | – | –
5 | EcpG13: prototype cAMP sensor, cpEGFP in Epac2 at E461; SEQID 28 in Table 1, SEQ ID NO: 29 in Table 3 | −22% | −22 | – | – | –
6 | EcpG15: prototype cAMP sensor, cpEGFP in Epac2 at N463; SEQID 17 in Table 1, SEQ ID NO: 18 in Table 3 | 34% | 34 | – | – | –
7 | EcpG18: prototype cAMP sensor, cpEGFP in Epac2 at A486; SEQID 32 in Table 1, SEQ ID NO: 33 in Table 3 | 12% | 12 | – | – | –
8 | EcpG22: prototype cAMP sensor, cpEGFP in Epac2 at V341; SEQID 31 in Table 1, SEQ ID NO: 32 in Table 3 | −14% | – | −14% | – | –
9 | EcpG23: prototype cAMP sensor, cpEGFP in Epac2 at L518; SEQID 29 in Table 1, SEQ ID NO: 30 in Table 3 | −16% | −16 | – | – | –
10 | EcpG24: prototype cAMP sensor, cpEGFP in Epac2 at A520; SEQID 33 in Table 1, SEQ ID NO: 34 in Table 3 | −11% | −11 | – | – | –
11 | calcitonin | – | – | – | two different G-protein pathways have been activated | can stimulate just one G-protein pathway
